This note sets out measurements from BindingDB's records for patent US20250129027 (Apogee Pharmaceuticals, 2025).

As usually defined, the IC50 is the concentration that gives 50% inhibition.

One assay has as its target T1, Fatty-acid amide hydrolase 1 (Homo sapiens, UniProt O00519).
T1 sequence (O00519 whole entry): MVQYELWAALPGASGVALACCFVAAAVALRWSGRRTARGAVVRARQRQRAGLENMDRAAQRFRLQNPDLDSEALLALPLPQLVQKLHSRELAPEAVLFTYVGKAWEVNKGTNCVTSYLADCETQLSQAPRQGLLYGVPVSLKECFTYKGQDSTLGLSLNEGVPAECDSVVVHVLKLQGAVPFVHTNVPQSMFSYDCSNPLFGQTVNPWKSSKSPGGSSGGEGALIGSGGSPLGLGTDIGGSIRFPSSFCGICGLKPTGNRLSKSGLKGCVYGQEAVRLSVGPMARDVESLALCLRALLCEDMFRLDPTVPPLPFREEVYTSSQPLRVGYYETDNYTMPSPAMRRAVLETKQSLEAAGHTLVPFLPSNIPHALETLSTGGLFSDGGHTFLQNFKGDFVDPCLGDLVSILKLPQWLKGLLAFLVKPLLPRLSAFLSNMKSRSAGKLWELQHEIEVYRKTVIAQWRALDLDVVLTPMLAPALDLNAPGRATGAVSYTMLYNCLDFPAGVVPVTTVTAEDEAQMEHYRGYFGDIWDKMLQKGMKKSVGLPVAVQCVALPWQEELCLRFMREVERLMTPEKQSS
The assay can be described thus: In Vitro Inhibition on FAAH and MAGL Activity Assay. The text has this: (§1) In brief, FAAH hydrolyzes AMC arachidonoyl amide resulting in the release of the fluorescent product, while the inhibitor will inhibit the FAAH activity and thus reduce the fluorescent signal. […] The absorbance of the yellow product can be analyzed using the plate reader.
As to `O=Cc1cncc(-c2cccc(OC(=O)NC3CCCCC3)c2)c1` [US20250129027, Example 19], half-maximal inhibition (IC50) was put at 1 µM. This counts as single-digit micromolar.

Compound `CN(C)c1ccc(OC(=O)NC2CCCC2)cc1-c1cncc(-c2nnco2)c1` [US20250129027, Example 183] had an IC50 greater than 1 µM.

Compound `CN(C(=O)Oc1cccc(-c2cncc(-c3nnco3)c2)c1)C1CCCCCC1` [US20250129027, Example 144] returned an IC50 greater than 1 µM.

In the case of `CCCCCCCCCCCCCCNC(=O)Oc1cccc(-c2cncc(C(=O)NO)c2)c1` [US20250129027, Example 24], the IC50 was less than 0.01 µM.

Take `CCCCCCCCCCCCCCNC(=O)Oc1cccc(-c2cncc(-c3nnco3)c2)c1` [US20250129027, Example 132]: the IC50 was less than 0.02 µM.

The target in a further assay is T2, Monoglyceride lipase (Homo sapiens, UniProt Q99685).
T2 sequence (Q99685 whole entry): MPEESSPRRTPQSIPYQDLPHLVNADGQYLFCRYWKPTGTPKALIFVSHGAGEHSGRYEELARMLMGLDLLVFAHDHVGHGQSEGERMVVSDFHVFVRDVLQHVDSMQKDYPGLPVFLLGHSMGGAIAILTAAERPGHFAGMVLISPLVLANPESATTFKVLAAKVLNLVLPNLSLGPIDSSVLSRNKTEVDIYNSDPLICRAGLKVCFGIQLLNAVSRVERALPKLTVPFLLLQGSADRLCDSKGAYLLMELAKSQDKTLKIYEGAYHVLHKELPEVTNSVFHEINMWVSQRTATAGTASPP
Described as above.
Excerpt: as §1
With `CCCCCCCCNC(=O)Oc1cccc(-c2cncc(C#N)c2)c1` [US20250129027, Example 27], the IC50 is greater than 10 µM.

Take `CCCCCCCNC(=O)Oc1ccc(O)c(-c2cncc(-c3nnco3)c2)c1` [US20250129027, Example 156]: the IC50 was greater than 20 µM.

`CCCCCCCCCCCCNC(=O)Oc1cccc(-c2cncc(-c3nnco3)c2)c1` [US20250129027, Example 131]: the IC50 is less than 10 µM.

Regarding `CCCCCCCCNC(=O)Oc1ccc(OC)c(-c2cncc(-c3cccs3)c2)c1` [US20250129027, Example 65], the IC50 was 10 µM.

In the case of `O=Cc1cncc(-c2cccc(OC(=O)NC3CCCCC3)c2)c1` [US20250129027, Example 19], the IC50 is greater than 10 µM.

With `CN(C)c1ccc(OC(=O)NC2CCCC2)cc1-c1cncc(-c2nnco2)c1` [US20250129027, Example 183], the IC50 is greater than 10 µM.

Turning to `CCCCCCCCNC(=O)Oc1ccc(OC(F)(F)F)c(-c2cncc(-c3ncco3)c2)c1` [US20250129027, Example 88], the IC50 turned out to be 10 µM.

With `CCCCCCCCNC(=O)Oc1ccc(OC)c(-c2cncc(-c3ccc[nH]3)c2)c1` [US20250129027, Example 41], the IC50 is greater than 10 µM.

Regarding `CCCCCCCNC(=O)Oc1cccc(-c2cncc(C(=O)OC)c2)c1` [US20250129027, Example 9], the IC50 is greater than 10 µM.

On to `CCCCCCCCNC(=O)Oc1cccc(-c2cncc(C(F)(F)F)c2)c1` [US20250129027, Example 30], for which the IC50 was greater than 10 µM.

In turn, `CCCCCCNC(=O)Oc1cccc(-c2cncc(-c3nnco3)c2)c1` [US20250129027, Example 128] registered an IC50 greater than 50 µM.

On to `CN(C(=O)Oc1cccc(-c2cncc(-c3nnco3)c2)c1)C1CCCCCC1` [US20250129027, Example 144], for which the IC50 was greater than 10 µM.

Consider `COc1ccc(OC(=O)NC2CCCCC2)cc1-c1cncc(-c2nncs2)c1` [US20250129027, Example 217], for which the IC50 was greater than 10 µM.

`CCCCCCCNC(=O)Oc1ccc(OC)c(-c2cncc(-c3nnco3)c2)c1` [US20250129027, Example 166] came in with an IC50 greater than 10 µM.

On to `CCCCCCCCNC(=O)Oc1cccc(-c2cncc(C(=O)OCC)c2)c1` [US20250129027, Example 3], for which the IC50 was greater than 10 µM.

`CCCCCCCCCCCCCCNC(=O)Oc1cccc(-c2cncc(C(=O)NO)c2)c1` [US20250129027, Example 24]: the IC50 is greater than 10 µM.

As to `CCCCCCCCCCCCCCNC(=O)Oc1cccc(-c2cncc(-c3nnco3)c2)c1` [US20250129027, Example 132], the IC50 was less than 10 µM.

The compound `CCCCCNC(=O)Oc1cccc(-c2cncc(C(=O)OCC)c2)c1` [US20250129027, Example 1] registered an IC50 greater than 10 µM.

`CCCCCCCCNC(=O)Oc1cccc(-c2cncc(-c3nnco3)c2)c1` [US20250129027, Example 130] yielded an IC50 greater than 10 µM.

As for `CCCCCCCCNC(=O)Oc1ccc(O)c(-c2cncc(-c3nnco3)c2)c1` [US20250129027, Example 157], the IC50 was greater than 10 µM.

With `CCCCCCCNC(=O)Oc1cccc(-c2cncc(C#N)c2)c1` [US20250129027, Example 26], the IC50 is greater than 10 µM.

The compound `CCCCCCCCNC(=O)Oc1ccc(OC)c(-c2cncc(-c3nnco3)c2)c1` [US20250129027, Example 167] registered an IC50 greater than 10 µM.

`CCCCCNC(=O)Oc1cccc(-c2cncc(C(=O)OC)c2)c1` [US20250129027, Example 8] returned an IC50 greater than 10 µM.

Regarding `CCCCCCCCNC(=O)Oc1cccc(-c2cncc(C(=O)OC)c2)c1` [US20250129027, Example 10], the IC50 was greater than 1 µM.

The compound `CCCCCCCCNC(=O)Oc1cccc(-c2cncc(-c3ccco3)c2)c1` [US20250129027, Example 47] came in with an IC50 of 10 µM.
